As a reminder, the AC50 is the concentration at which the activity in the assay is half-maximal. A word on the IC50: it is the point on the concentration scale where inhibition reaches its midpoint. As usually defined, the EC50 is the concentration giving half of the maximal effect. For orientation: CC50 means the concentration giving 50% cytotoxicity.

We go through three compounds from ChEMBL document CHEMBL1201862, “PubChem BioAssay data set” (2004).

Activity calls are given as the source filed them.

In one assay the target is Caspase-9 (Homo sapiens, UniProt P55211). As to the kind of experiment: caspase-9 enzyme inhibition, dose response, selectivity assay for caspase-6 inhibitor project, biochemical, fluorescence, plate reader, cherry-picked samples (AID 743293).
In assay [1] the target is Tyrosyl-DNA phosphodiesterase 2 (Homo sapiens, UniProt O95551). As to the kind of experiment: human TDP2 enzyme inhibitors, dose response, biochemical, epi absorbance, IC50 (AID 743297).
In a further assay the target is T1, Caspase-6 (Homo sapiens, UniProt P55212).
T1 sequence (P55212 whole entry): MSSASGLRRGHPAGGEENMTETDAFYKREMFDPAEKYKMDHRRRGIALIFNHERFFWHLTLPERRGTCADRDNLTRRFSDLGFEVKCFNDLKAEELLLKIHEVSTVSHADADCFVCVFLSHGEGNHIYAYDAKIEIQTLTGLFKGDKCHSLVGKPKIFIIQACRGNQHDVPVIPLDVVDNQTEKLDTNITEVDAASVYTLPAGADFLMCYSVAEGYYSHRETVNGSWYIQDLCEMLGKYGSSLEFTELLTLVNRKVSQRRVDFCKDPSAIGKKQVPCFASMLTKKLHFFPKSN
As to the kind of experiment: human caspase-6 inhibitors, dose response, biochemical, VEID-R110 fluorescence, cherry-pick (AID 720632).

Assay [2] has as its target T2, Heat shock factor protein 1 (Mus musculus, UniProt P38532).
T2 sequence (P38532 whole entry): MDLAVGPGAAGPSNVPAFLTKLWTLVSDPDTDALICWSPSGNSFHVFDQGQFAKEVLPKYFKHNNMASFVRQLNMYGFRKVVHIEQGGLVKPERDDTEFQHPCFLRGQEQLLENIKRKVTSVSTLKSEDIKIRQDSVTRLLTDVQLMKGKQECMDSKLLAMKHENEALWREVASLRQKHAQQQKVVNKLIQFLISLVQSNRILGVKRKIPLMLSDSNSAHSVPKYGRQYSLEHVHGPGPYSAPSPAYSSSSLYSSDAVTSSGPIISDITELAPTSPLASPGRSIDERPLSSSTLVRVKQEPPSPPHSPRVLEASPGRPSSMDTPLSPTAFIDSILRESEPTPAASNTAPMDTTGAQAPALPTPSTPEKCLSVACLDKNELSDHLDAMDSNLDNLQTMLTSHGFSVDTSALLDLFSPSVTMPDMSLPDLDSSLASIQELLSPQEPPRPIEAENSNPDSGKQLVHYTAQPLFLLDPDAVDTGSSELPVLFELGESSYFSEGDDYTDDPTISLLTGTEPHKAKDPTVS
As to the kind of experiment: HSF1 potentiators in luciferase reporter cells, confirmation, cell-based, NIH3T3, luminescence, dose retest (AID 435004).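 Note: stress induced by proteasome inhibitor MG132 added 30 min after compound; luciferase reporter driven by HSF1 response element in NIH3T3 cells; actives raise luminescence as potentiators of the MG132 stress response.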 The assay is classed as functional. In general terms: Reporter assays use an easily measured gene product as a stand-in for the process of interest.

For assay [3], the target named is 5-hydroxytryptamine receptor 5A (Homo sapiens, UniProt P47898). The assay is described as follows: Counterscreen for agonists of OPRM1-OPRD1 heterodimerization: luminescence-based cell-based high throughput dose response assay to identify agonists of 5-hydroxytryptamine (serotonin) 5A receptor (HTR5A). [Related pubchem assays (depositor defined):AID504326, AID504355, AID504692, AID504904, AID504905]. The assay is classed as functional. (A counterscreen serves to expose hits that act by an unwanted route or on another target.)

The target in assay [4] is T3, Endoribonuclease toxin MazF (Escherichia coli K-12, UniProt P0AE70).
T3 sequence (P0AE70 whole entry): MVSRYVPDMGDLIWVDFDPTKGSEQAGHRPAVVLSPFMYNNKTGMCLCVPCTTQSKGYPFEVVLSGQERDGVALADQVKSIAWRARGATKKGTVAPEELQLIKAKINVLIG
As to the kind of experiment: MazF endoribonuclease activators, SAR follow-up, biochemical, fluorescence, single-stranded RNA substrate (AID 588603). The assay is classed as functional.

The nature of assay [5]: THP-1 cell cytotoxicity, dose response, cytotoxicity control for Vif-APOBEC3G degradation inhibitor project, THP-1 cells (AID 1117359). The assay is classed as functional. As to conditions: Human immunodeficiency virus 1, THP-1.
Another assay relates to Vero. The assay is described as follows: Vero cell cytotoxicity, cytotoxicity control for flavivirus capping enzyme inhibitors (AID 588742). The assay is classed as functional. As to conditions: Chlorocebus sabaeus.
Assay [6] addresses Photoreceptor-specific nuclear receptor (Homo sapiens, UniProt Q9Y5X4). The assay is classed as functional.
In assay [7] the target is Sphingosine 1-phosphate receptor 2 (Homo sapiens, UniProt O95136). The assay is described as follows: Dose Response Cell Based Assay for Antagonists of the S1P2 Receptor. [Related pubchem assays: 856, 736 ]. The assay is classed as functional.
Assay [8] has as its target Mitochondrial peptide methionine sulfoxide reductase (Bos taurus, UniProt P54149). As to the kind of experiment: Absorbance-based biochemical high throughput dose response assay for activators of Methionine sulfoxide reductase A (MsrA). The assay is classed as functional.
Assay [9] has as its target T4, Tyrosine-protein phosphatase non-receptor type 22 (Homo sapiens, UniProt Q9Y2R2).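 Note: confirmatory dose-response retest of primary uHTS hits for inhibition of LYP phosphatase, measured by a fluorescence intensity read-out.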
T4 sequence (Q9Y2R2 whole entry): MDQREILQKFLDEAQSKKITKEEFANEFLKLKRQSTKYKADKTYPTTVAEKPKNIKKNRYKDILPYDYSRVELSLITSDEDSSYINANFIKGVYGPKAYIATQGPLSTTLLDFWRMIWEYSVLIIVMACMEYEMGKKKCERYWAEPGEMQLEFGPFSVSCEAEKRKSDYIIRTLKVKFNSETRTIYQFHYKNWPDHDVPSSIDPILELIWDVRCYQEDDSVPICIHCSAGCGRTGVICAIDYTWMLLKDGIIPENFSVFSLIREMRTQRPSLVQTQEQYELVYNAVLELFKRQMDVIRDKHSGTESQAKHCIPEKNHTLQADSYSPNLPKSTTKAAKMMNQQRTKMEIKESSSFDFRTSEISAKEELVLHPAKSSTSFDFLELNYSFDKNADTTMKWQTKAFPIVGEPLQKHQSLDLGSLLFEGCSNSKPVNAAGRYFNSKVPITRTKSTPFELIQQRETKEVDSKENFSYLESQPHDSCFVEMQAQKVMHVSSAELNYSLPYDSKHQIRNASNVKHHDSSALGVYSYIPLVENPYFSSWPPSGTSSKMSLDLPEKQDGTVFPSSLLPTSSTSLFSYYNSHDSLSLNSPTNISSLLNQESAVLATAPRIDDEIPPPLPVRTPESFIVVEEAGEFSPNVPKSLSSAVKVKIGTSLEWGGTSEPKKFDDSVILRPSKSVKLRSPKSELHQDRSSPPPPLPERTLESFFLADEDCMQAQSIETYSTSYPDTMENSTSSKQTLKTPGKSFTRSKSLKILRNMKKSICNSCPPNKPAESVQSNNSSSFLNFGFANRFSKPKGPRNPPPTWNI
The assay is classed as functional.

Assay [10] in a line: THP-1 cell cytotoxicity, dose response, cytotoxicity control for non-replicating M. tuberculosis project (AID 489025). The assay is classed as functional.
For assay [11], the system named is BJ. The assay is described as follows: cytotoxicity toward BJ-TERT fibroblasts, dose response, cell-based, RAS-independent, luminescence (AID 1933). The assay is classed as functional. Particulars: Homo sapiens.
The target in a further assay is Phospholipase A2 (Homo sapiens, UniProt P04054). The assay is classed as functional.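 Note: confirmatory dose-response counterscreen on phospholipase A2, testing hits that came from an ultra-high-throughput screen for ATG4B inhibitors.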
For assay [12], the system named is BJ. The assay is described as follows: cytotoxicity toward BJ-TERT-LT-ST fibroblasts, dose response, cell-based, RAS-independent, luminescence (AID 1935).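 Note: BJ fibroblasts immortalized with TERT plus LT and ST oncogenes.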 The assay is classed as functional. Particulars: Homo sapiens.
Assay [13] has as its target Dual specificity tyrosine-phosphorylation-regulated kinase 1A (Rattus norvegicus, UniProt Q63470). The assay is classed as biochemical, Homo sapiens.
The target of assay [14] is Transitional endoplasmic reticulum ATPase (Homo sapiens, UniProt P55072, C522A). The assay is described as follows: C522A mutant p97 ATPase inhibitors, dose response, counter-screen for p97 inhibitor project, biochemical, luminescence (AID 1544).
A short description of assay [15]: growth suppression of PTEN-null colon cells, dose response, cell-based, HCT116 PTEN knockout (AID 1047).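 Note: HCT116 colon tumor cells with PTEN knocked out; cells exposed to compound for 60 hours before readout; potency for loss of cell viability measured by luminescence.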 The assay is classed as functional.

Chain of Phospholipase A2 (P04054 whole entry): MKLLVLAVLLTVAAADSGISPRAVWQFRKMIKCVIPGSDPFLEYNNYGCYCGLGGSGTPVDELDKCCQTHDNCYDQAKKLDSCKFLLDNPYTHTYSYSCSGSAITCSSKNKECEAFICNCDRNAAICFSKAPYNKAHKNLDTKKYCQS
Chain of Caspase-9 (P55211 1-315 limits assumed): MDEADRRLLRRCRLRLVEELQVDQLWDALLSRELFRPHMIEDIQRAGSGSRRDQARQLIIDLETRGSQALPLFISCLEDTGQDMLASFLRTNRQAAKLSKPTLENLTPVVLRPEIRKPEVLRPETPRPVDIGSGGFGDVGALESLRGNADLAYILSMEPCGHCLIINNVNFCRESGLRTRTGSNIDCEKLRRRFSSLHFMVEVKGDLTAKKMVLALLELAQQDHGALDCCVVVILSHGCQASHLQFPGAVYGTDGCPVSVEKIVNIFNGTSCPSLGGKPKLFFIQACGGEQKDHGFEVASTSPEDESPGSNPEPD
Chain of Caspase-9 (P55211 331-416 limits assumed): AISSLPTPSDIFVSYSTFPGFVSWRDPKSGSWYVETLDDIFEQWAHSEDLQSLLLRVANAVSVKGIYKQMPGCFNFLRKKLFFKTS
Chain of Tyrosyl-DNA phosphodiesterase 2 (O95551 whole entry): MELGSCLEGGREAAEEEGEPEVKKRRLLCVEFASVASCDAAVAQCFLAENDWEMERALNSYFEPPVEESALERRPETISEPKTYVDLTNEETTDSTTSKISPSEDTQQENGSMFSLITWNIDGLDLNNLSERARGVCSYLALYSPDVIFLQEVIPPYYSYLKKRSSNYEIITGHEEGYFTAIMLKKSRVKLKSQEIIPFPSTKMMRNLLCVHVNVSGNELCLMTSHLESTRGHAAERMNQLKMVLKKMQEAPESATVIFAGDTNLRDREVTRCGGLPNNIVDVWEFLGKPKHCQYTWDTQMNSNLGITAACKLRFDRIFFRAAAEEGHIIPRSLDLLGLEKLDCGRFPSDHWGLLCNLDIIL
Chain of Sphingosine 1-phosphate receptor 2 (O95136 whole entry): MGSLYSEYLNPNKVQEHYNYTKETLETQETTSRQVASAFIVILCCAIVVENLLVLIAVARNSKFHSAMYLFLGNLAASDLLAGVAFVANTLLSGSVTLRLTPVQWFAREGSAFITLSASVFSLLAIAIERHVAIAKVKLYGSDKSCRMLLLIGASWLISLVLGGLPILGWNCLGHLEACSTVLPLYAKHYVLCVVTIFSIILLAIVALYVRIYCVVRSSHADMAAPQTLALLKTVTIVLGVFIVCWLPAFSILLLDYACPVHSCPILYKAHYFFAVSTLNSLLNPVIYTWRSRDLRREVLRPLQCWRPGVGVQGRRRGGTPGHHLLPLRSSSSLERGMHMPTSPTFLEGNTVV
Chain of Transitional endoplasmic reticulum ATPase (P55072 2-806 C522A limits assumed): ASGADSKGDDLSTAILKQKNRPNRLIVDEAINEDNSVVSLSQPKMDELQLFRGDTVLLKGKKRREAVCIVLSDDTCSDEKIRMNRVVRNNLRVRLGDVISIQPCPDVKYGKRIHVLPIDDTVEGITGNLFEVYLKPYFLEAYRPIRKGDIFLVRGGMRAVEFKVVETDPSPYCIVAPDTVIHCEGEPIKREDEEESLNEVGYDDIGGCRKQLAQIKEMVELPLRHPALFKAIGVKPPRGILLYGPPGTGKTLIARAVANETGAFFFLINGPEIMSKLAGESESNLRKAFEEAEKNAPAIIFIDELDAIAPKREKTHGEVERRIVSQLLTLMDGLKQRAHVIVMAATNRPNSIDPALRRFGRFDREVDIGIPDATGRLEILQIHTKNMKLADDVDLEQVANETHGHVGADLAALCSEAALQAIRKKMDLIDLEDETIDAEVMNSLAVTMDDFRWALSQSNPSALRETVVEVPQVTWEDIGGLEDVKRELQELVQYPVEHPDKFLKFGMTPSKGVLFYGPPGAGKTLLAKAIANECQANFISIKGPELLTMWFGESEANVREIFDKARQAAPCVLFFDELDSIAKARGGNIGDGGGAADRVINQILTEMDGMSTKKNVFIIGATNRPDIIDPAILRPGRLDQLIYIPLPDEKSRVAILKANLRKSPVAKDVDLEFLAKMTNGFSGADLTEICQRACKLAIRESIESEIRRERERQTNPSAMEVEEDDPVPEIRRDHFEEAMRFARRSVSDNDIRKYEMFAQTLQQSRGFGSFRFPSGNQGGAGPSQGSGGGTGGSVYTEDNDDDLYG
Chain of 5-hydroxytryptamine receptor 5A (P47898 whole entry): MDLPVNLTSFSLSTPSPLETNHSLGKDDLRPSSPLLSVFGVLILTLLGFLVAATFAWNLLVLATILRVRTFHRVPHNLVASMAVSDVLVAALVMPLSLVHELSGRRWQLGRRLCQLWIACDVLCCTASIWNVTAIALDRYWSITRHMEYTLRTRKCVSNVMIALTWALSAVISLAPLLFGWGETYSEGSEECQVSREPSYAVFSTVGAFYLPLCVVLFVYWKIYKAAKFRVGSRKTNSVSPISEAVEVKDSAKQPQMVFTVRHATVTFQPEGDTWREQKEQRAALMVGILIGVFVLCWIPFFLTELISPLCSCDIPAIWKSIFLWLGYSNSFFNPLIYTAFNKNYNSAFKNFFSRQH
Chain of Mitochondrial peptide methionine sulfoxide reductase (P54149 whole entry): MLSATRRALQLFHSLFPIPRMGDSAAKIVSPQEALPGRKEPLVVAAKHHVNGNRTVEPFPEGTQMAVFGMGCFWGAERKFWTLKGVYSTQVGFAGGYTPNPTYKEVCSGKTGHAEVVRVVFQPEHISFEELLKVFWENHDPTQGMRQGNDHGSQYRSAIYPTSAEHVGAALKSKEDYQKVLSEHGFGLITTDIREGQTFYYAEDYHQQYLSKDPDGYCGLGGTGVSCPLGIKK
Chain of Photoreceptor-specific nuclear receptor (Q9Y5X4 whole entry): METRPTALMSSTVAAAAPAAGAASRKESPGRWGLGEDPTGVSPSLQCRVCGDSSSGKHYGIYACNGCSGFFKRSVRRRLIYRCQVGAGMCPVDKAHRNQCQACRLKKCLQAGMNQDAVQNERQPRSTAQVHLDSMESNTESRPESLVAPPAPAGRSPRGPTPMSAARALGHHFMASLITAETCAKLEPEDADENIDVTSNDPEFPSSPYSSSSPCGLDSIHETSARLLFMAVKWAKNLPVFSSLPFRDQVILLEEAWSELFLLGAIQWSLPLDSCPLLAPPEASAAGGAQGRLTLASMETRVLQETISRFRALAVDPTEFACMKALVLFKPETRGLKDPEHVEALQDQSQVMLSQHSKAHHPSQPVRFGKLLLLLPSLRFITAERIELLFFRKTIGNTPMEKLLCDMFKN

Turning to `Oc1nc(Nc2ccccc2Cl)cc2ccccc12`, the AC50 is 28.8 µM (active) at Caspase-9 and 3.75 µM (active) on Caspase-6. In assay [1], the IC50 is 28.4 µM (inactive). Moreover, the concentration for a half-maximal effect (EC50) in [2] was 136 µM (active).

Turning to `O=C1C=C(c2c(O)ccc3ccccc23)c2ccccc2C1=O`, the EC50 was > 92.4 µM (inactive) in [3] and > 99 µM (inactive) in assay [4]. Besides, the CC50 in assay [5] is 7.1 µM (active); in the assay with Vero, 22.1 µM (active).

Consider `Cc1nc2c(=O)n(C)c(=O)nc-2n(C)n1`, for which the half-inhibitory concentration (IC50) in [6] is > 39.8 µM (not active); in assay [7] it was 1.4 µM (active); in [9], < 1.24 µM (active); on Phospholipase A2, > 80 µM (inactive); in assay [14] it was > 50 µM (not active). Further, the EC50 in assay [8] was 63.7 µM (inactive); with BJ [11], 4.56 µM (active); in the assay with BJ [12], 4.95 µM (inconclusive); in assay [15], 0.821 µM (active). Besides, in assay [10], the CC50 was 2.73 µM (active). The AC50 in [13] was 0.215 µM (active).
